Key:
[1] = test system: green peach aphid (Myzus persicae); experiment: Method J: Myzus persicae test (spray application); format: in vivo; conditions: concentration of 500 g/ha, spray on infected Chinese cabbage leaf-disks
Description: Method J: Myzus persicae Test (Spray Application)
100% means that all aphids have been killed; 0% means that none of the aphids have been killed.

[2] = test system: Rhipicephalus sanguineus (Brown Dog Tick); experiment: Method A: contact activity against ticks; format: in vivo; conditions: 48 h; for LC50: read-out: LD50; for pest or weed control at 25 µg/mL: read-out: control of Rhipicephalus sanguineus
Description: • Method of Use Examples Method A: Screening Method to Test Contact Activity of Compounds Against Ticks
A solution of the test compound was used to coat the inner wall of glass vials and to treat two filter papers. Once dried, one filter paper was placed in the cap of the vial and the other in the bottom of the vial. Each treated vial was infested with 10 adult Rhipicephalus sanguineus (Brown Dog Tick). Contact of the ticks with residues was induced by holding the vials in a controlled environment (24° C., 90-95% relative humidity) and assessment was performed at 24, 48 hours after application in comparison with untreated controls.

[3] = test system: western flower thrips (Frankliniella occidentalis); experiment: Method L: Frankliniella occidentalis test (spray application); format: in vivo; conditions: concentration of 500 g/ha, spray on French bean leaf-disks
Description: Method L: Frankliniella occidentalis Test (Spray Application)
French bean (Phaseolus vulgaris) leaf-disks are sprayed with a test solution containing the desired concentration of the active ingredient. Once dry, the leaf disks are infested with western flower thrips (Frankliniella occidentalis).
100% means that all the thrips have been killed; 0% means that none of the thrips have been killed.

[4] = test system: fall armyworm larvae (Spodoptera frugiperda); experiment: Method I: Spodoptera frugiperda test (spray application); format: in vivo; conditions: concentration of 500 g/ha, spray on maize leaf sections
Description: Method I: Spodoptera frugiperda Test (Spray Application)
Maize (Zea mais) leaf sections are sprayed with a preparation of the active ingredient of the desired concentration. Once dry, the leaf sections are infested with fall armyworm larvae (Spodoptera frugiperda).

[5] = cited from earlier work
[6] = test system: two spotted spidermite (Tetranychus urticae); experiment: Method K: Tetranychus urticae test; OP-resistant (spray application); conditions: read-out: activity (mortality in %), Tetranychus urticae
Protocol: Method K: Tetranychus urticae Test; OP-Resistant (Spray Application)
French beans (Phaseolus vulgaris) which are heavily infested with all stages of the two spotted spidermite (Tetranychus urticae), are sprayed with a preparation of the active ingredient at the desired concentration.
After the specified period of time, mortality in % is determined. 100% means that all spider mites have been killed and 0% means that none of the spider mites have been killed.

[7] = test system: am. serpentine leaf miner (Liriomyza trifolii); experiment: Method M: Liriomyza trifolii test (spray application); format: in vivo; conditions: concentration of 500 g/ha, spray on infested French bean leaf-disks
Description: Method M: Liriomyza trifolii Test (Spray Application)
French bean (Phaseolus vulgaris) leaf-disks infested with larvaes of the am. serpentine leaf miner (Liriomyza trifolii) are sprayed with a test solution containing the desired concentration of the active ingredient.
100% means that all the leaf miners have been killed; 0% means that none of the leaf miners have been killed.

[8] = test system: Ctenocephalides felis; experiment: Method B: contact activity against fleas; format: in vivo; conditions: 72 hours assessment
Protocol: Method B: Screening Method to Test Contact Activity of Compounds Against Fleas
A solution of the test compound was dispensed, using a pipette, onto filter paper placed into a glass vial. The filter paper was allowed to dry before infesting each vial with 10 adult Ctenocephalides felis. The treated Ctenocephalides felis were held in a controlled environment (24° C., 90-95% relative humidity) and assessment was performed at 24, 48 and 72 hours after application in comparison with untreated controls.

Row | Compound | mortality at 500 g/ha [1] | LC50 [2] | pest or weed control at 25 µg/mL [2] | mortality at 500 g/ha [3] | mortality at 500 g/ha [4] | oral LD50 [5] | mortality at 100 g/ha [6] | mortality at 500 g/ha [7] | LD50 [8]
1 | Cc1c([S+]([O-])C(F)(F)F)c(C#N)nn1-c1c(F)cc(C(F)(F)F)cc1Cl (stereo not shown) [Compound 9, 1-(2-Chloro-6-fluoro-4-trifluoromethylphenyl)-3-cyano-5-methyl-4-trifluoromethylsulfinylpyrazole] | ≥ 80% | < 6 µg/mL | ≥ 80% | ≥ 80% | – | – | – | – | –
2 | N#Cc1nn(-c2c(Cl)cc(OC(F)(F)F)cc2Cl)c(CF)c1[S+]([O-])C(F)(F)F (stereo not shown) [Compound 18, 3-Cyano-1-(2,6-dichloro-4-trifluoromethoxyphenyl)-5-fluoromethyl-4-trifluoromethylsulfinylpyrazole] | ≥ 80% | < 6 µg/mL | ≥ 80% | – | – | – | – | – | –
3 | Cc1c(S(=O)(=O)C(F)(F)F)c(C#N)nn1-c1c(Cl)cc(C(F)(F)F)cc1Cl [Compound 4, 3-cyano-1-(2,6-dichloro-4-trifluoromethylphenyl)-5-methyl-4-trifluoromethylsulfonylpyrazole] | ≥ 80% | < 6 µg/mL | ≥ 80% | ≥ 80% | – | – | – | – | –
4 | N#Cc1nn(-c2c(F)cc(C(F)(F)F)cc2Cl)c(CF)c1SC(F)(F)F [Compound 8, 1-(2-Chloro-6-fluoro-4-trifluoromethylphenyl)-3-cyano-5-fluoromethyl-4-trifluoromethylthiopyrazole] | ≥ 80% | < 6 µg/mL | ≥ 80% | ≥ 80% | – | – | – | – | –
5 | N#Cc1nn(-c2c(Cl)cc(C(F)(F)F)cc2Cl)c(CF)c1SC(F)(F)F [Compound 3, 3-cyano-1-(2,6-dichloro-4-trifluoromethylphenyl)-5-fluoromethyl-4-trifluoromethylthiopyrazole] | ≥ 80% | < 6 µg/mL | ≥ 80% | ≥ 80% | – | – | – | – | –
6 | Cc1c([S+]([O-])C(F)(F)F)c(C#N)nn1-c1c(F)cc(C(F)(F)F)cc1F (stereo not shown) [Compound 12, 3-Cyano-1-(2,6-difluoro-4-trifluoromethylphenyl)-5-methyl-4-trifluoromethylsulfinylpyrazole] | ≥ 80% | < 6 µg/mL | ≥ 80% | ≥ 80% | – | – | – | – | –
7 | Cc1c(SC(F)(F)F)c(C#N)nn1-c1c(Cl)cc(OC(F)(F)F)cc1Cl [Compound 17, 3-Cyano-1-(2,6-dichloro-4-trifluoromethoxyphenyl)-5-methyl-4-trifluoromethylthiopyrazole] | ≥ 80% | < 6 µg/mL | ≥ 80% | – | – | – | – | – | –
8 | Cc1c(SC(F)(F)F)c(C#N)nn1-c1c(Cl)cc(C(F)(F)F)cc1Cl [Compound 1, 3-Cyano-1-(2,6-dichloro-4-trifluoromethylphenyl)-5-methyl-4-trifluoromethylthiopyrazole] | ≥ 80% | < 6 µg/mL | ≥ 80% | ≥ 80% | – | – | – | – | –
9 | Cc1cc(C(F)(F)F)cc(Cl)c1-n1nc(C#N)c([S+]([O-])C(F)(F)F)c1C (stereo not shown) [Compound 44, 1-(2-Chloro-6-methyl-4-trifluoromethylphenyl)-3-cyano-5-methyl-4-trifluoromethylsulfinylpyrazole] | ≥ 80% | < 6 µg/mL | ≥ 80% | ≥ 80% | – | – | – | – | –
10 | Cc1c([S+]([O-])C(F)(F)F)c(C#N)nn1-c1c(Cl)cc(OC(F)(F)F)cc1Cl (stereo not shown) [Compound 19, 3-Cyano-1-(2,6-dichloro-4-trifluoromethoxyphenyl)-5-methyl-4-trifluoromethylsulfinylpyrazole] | ≥ 80% | < 6 µg/mL | ≥ 80% | ≥ 80% | – | – | – | – | –
11 | Cc1c([S+]([O-])C(F)(F)F)c(C#N)nn1-c1c(Cl)cc(C(F)(F)F)cc1Cl (stereo not shown) [Compound 5, 3-cyano-1-(2,6-dichloro-4-trifluoromethylphenyl)-5-methyl-4-trifluoromethylsulfinylpyrazole] | ≥ 80% | < 6 µg/mL | ≥ 80% | ≥ 80% | ≥ 80% | – | – | – | –
12 | N#Cc1ccc(CC(=NNC(=O)Nc2ccc(OC(F)(F)F)cc2)c2cccc(C(F)(F)F)c2)cc1 (mixture of isomers) [Metaflumizone] | – | – | – | – | – | > 5,000 mg/kg | – | – | –
13 | Cc1cc(C(F)(F)F)cc(Cl)c1-n1nc(C#N)c(SC(F)(F)F)c1C [Compound 43, 1-(2-chloro-6-methyl-4-trifluoromethylphenyl)-3-cyano-5-methyl-4-trifluoromethylthiopyrazole] | ≥ 80% | < 6 µg/mL | ≥ 80% | – | – | – | – | – | –
14 | N#Cc1nn(-c2c(Cl)cc(OC(F)(F)F)cc2Cl)c(CF)c1SC(F)(F)F [Compound 16, 3-Cyano-1-(2,6-dichloro-4-trifluoromethoxyphenyl)-5-fluoromethyl-4-trifluoromethylthiopyrazole] | ≥ 80% | < 6 µg/mL | ≥ 80% | ≥ 80% | – | – | – | – | –
15 | Cc1c([S+]([O-])C(F)(F)F)c(C#N)nn1-c1ccc(C(F)(F)F)cc1F (stereo not shown) [Compound 14, 3-Cyano-1-(2-fluoro-4-trifluoromethylphenyl)-5-methyl-4-trifluoromethylsulfinylpyrazole] | ≥ 80% | < 6 µg/mL | ≥ 80% | – | – | – | ≥ 80% | – | –
16 | Cc1c(SC(F)(F)F)c(C#N)nn1-c1c(F)cc(C(F)(F)F)cc1F [Compound 6, 3-cyano-1-(2,6-difluoro-4-trifluoromethylphenyl)-5-methyl-4-trifluoromethylthiopyrazole] | ≥ 80% | < 6 µg/mL | ≥ 80% | ≥ 80% | – | – | – | – | –
17 | N#Cc1nn(-c2c(F)cc(C(F)(F)F)cc2Cl)c(CF)c1[S+]([O-])C(F)(F)F (stereo not shown) [Compound 11, 1-(2-Chloro-6-fluoro-4-trifluoromethylphenyl)-3-cyano-5-fluoromethyl-4-trifluoromethylsulfinylpyrazole] | ≥ 80% | < 6 µg/mL | ≥ 80% | – | – | – | – | – | –
18 | Cc1c(SC(F)(F)F)c(C#N)nn1-c1c(F)cc(C(F)(F)F)cc1Cl [Compound 7, 1-(2-Chloro-6-fluoro-4-trifluoromethylphenyl)-3-cyano-5-methyl-4-trifluoromethylthiopyrazole] | ≥ 80% | < 6 µg/mL | ≥ 80% | ≥ 80% | – | – | – | – | –
19 | N#Cc1nn(-c2c(Cl)cc(C(F)(F)F)cc2Cl)c(CF)c1[S+]([O-])C(F)(F)F (stereo not shown) [Compound 10, 3-Cyano-1-(2,6-dichloro-4-trifluoromethylphenyl)-5-fluoromethyl-4-trifluoromethylsulfinylpyrazole] | ≥ 80% | < 6 µg/mL | ≥ 80% | ≥ 80% | ≥ 80% | – | – | ≥ 80% | –
20 | N#Cc1nn(-c2c(Cl)cc(C(F)(F)F)cc2Cl)c(N)c1[S+]([O-])C(F)(F)F (stereo not shown) [fipronil] | – | – | – | – | – | – | – | – | around 20 ppm
